Experimental data taken from paper PMC1968196, “Effect of anthracycline analogs on photolabelling of p-glycoprotein by [125I]iodomycin and [3H]azidopine: relation to lipophilicity and inhibition of daunorubicin transport in multidrug resistant cells” (British Journal of Cancer, 1993).
Where “and” joins values, the source holds several entries; their conditions need not be identical. Equal entries are not always repeated. Where two headings read alike, the source gives them in different places.

Key:
[1] = tested on: P-glycoprotein; assay: [125I]iodomycin photolabelling of Pgp in EHR2/DNR+ cells; assay type: binding, mice
Excerpt: (§1) Br. J. Cancer (1993), 67, 226 231 ? Macmillan Press Ltd., 1993 Effect of anthracycline analogs on photolabelling of p-glycoprotein by I'25 liodomycin and [3Hlazidopine: Relation to lipophilicity and inhibition of daunorubicin transport in multidrug resistant cells E. Frichel*, E.J.F. Demant2, M. Sehested3 & N.I. Nissen' 'Department of Medicine and Hematology, L 4042, Rigshospitalet-University Hospital, 9, Blegdamsvej, DK-2100 Copenhagen; 2Department of Biochemistry C, The Panum Institute, University of Copenhagen, DK-2200 Copenhagen; 3Department of Pathology, Sundby Hospital, DK-2300 Copenhagen, Denmark. […] We photoaffinity labelled P-glycoprotein in daunorubicin (DNR) resistant Ehrlich ascites tumour cells (EHR2/DNR + ) with a ['25I]iodinated Bolton-Hunter derivative of daunorubicin ([1251]iodomycin) and with [3H]azidopine. […] Anthracyclines are among the most valuable cytostatic agents in clinical use. Their usefulness is, however, limited by the occurrence of tumour cells with the multidrug resistance (MDR) phenotype (Beck, 1987; Bliek & Borst, 1989; Endicott & Ling, 1989; Kaye & Merry, 1985; Moscow & Cowan, 1988). MDR cells have an enhanced amount of a 150- 170 kDa plasma membrane glycoprotein, P-glycoprotein (Pgp) (Kartner et al., 1983 and 1985; Cornwell et al., 1986; Bradley et al., 1988; Beck, 1991a; Roninson, 1991), that may function as a low-specificity transport protein to facilitate the outward transport of cytotoxic agents including the anthracyclines. Thus, increased drug efflux and therefore decreased accumulation is seen in MDR cells not only to the drug for which resistance is developed but also to a wide spectrum of chemically unrelated cytostatics (Bradley et al., 1988; Fojo et al., 1985). […] The aim of this study was to examine these analogs for their ability to com- pete for ligand binding to Pgp and thus service as inhibitors for the outward drug transport system in MDR cells. Anthracycline inter-actions with Pgp were assessed using the specific photolabelling of the protein with [251I]iodomycin, a ['251]iodinated Bolton-Hunter derivative of DNR (Busche et al., 1989a) and with [3H]azidopine ([3H]AZP) which photolabels Pgp in plasma membrane vesicles from EHR2/ DNR + cells (Sehested et al., 1990) as well as in whole cells (Safa et al., 1987; Friche et al., 1990c). […] Material and methods Chemicals Duanorubicin (DNR); AdriamycinR (Doxorubicin/HCl, DOX); 4'-deoxy-4'-iododoxorubicin (DIDOX); and 4- demethoxy-DNR were kindly supplied from Farmitalia, Carlo Erba (Milan, Italy). N,N-dibenzyl-DNR was a gift from Dr Nicholas Bachur, (Baltimore, MD) and N- benzyladriamycin-14-valerate (AD 198) a gift from Professor M. Israel (Memphis, TN). Mitoxantrone was purchased from Lederle (New Jersey, USA), Aclacinomycin A from Lund- beck & Co A/S (Copenhagen, Denmark), OncovinR (Vincristine/HCl, VCR) from Eli Lilly Deutschland GMBH (Giessen, Germany), Cremophor EL from BASF Aktiengesellschaft (Ludwigshafen, Germany), and Tween 80 from the Sigma Chemical Co. (St. Louis, MO). ['251]-Bolton- Hunter reagent (2000 Ci mmol 1), [3H]AZP (42 Ci mmol- ') and non-radioactive AZP were purchased from Amersham International (Amersham, UK). All other chemicals were of analytical grade. Organic solvents were distilled prior to use. Triethylamine was distilled over ninhydrin and anhydrous methanol was stored over molecular sieve (3 A). Tumour cells Cells were either the wild-type Ehrlich ascites tumor line (EHR2) or the corresponding DNR-resistant line (EHR2/ DNR + ) (Dan0, 1971) displaying both the MDR phenotype (Sehested et al., 1990) and as recently shown, decreased Correspondence: E. Friche. Received 22 April 1992; and in revised form 21 September 1992.

[2] = pH 7.45
Excerpt: as §1

[3] = tested on: P-glycoprotein; assay: [3H]azidopine photolabelling of Pgp in EHR2/DNR+ cells; assay type: binding, mice; conditions: [3H]AZP 0.4 µM
Excerpt: as §1

[4] = tested on: EHR2/DNR+ cells; assay: Modulating effect on steady-state DNR accumulation in EHR2/DNR+ cells; assay type: cell-based, mice; conditions: equimolar concentrations (5 µM)
Excerpt: (§2) Br. J. Cancer (1993), 67, 226 231 ? Macmillan Press Ltd., 1993 Effect of anthracycline analogs on photolabelling of p-glycoprotein by I'25 liodomycin and [3Hlazidopine: Relation to lipophilicity and inhibition of daunorubicin transport in multidrug resistant cells E. Frichel*, E.J.F. Demant2, M. Sehested3 & N.I. Nissen' 'Department of Medicine and Hematology, L 4042, Rigshospitalet-University Hospital, 9, Blegdamsvej, DK-2100 Copenhagen; 2Department of Biochemistry C, The Panum Institute, University of Copenhagen, DK-2200 Copenhagen; 3Department of Pathology, Sundby Hospital, DK-2300 Copenhagen, Denmark. […] We photoaffinity labelled P-glycoprotein in daunorubicin (DNR) resistant Ehrlich ascites tumour cells (EHR2/DNR + ) with a ['25I]iodinated Bolton-Hunter derivative of daunorubicin ([1251]iodomycin) and with [3H]azidopine. […] Anthracyclines are among the most valuable cytostatic agents in clinical use. […] Anthracycline inter-actions with Pgp were assessed using the specific photolabelling of the protein with [251I]iodomycin, a ['251]iodinated Bolton-Hunter derivative of DNR (Busche et al., 1989a) and with [3H]azidopine ([3H]AZP) which photolabels Pgp in plasma membrane vesicles from EHR2/ DNR + cells (Sehested et al., 1990) as well as in whole cells (Safa et al., 1987; Friche et al., 1990c). […]

[5] = tested on: Pgp; conditions: read-out: Kd for binding to Pgp, cited from earlier work
[6] = tested on: EHR2/DNR+ cells; conditions: ref Friche et al., cited from earlier work
[7] = tested on: Pgp; design: method as in Safa et al. (1987); conditions: ref Safa et al., 1987; cited from earlier work
[8] = tested on: EHR2/DNR+ cells; assay: Steady-state drug accumulation in EHR2 and EHR2/DNR+ cells; assay type: cell-based, mice
Excerpt: as §2, with “use. Their usefulness is, however, limited by the occurrence of tumour cells with the multidrug resistance (MDR) phenotype (Beck, 1987; Bliek & Borst, 1989; Endicott & Ling, 1989; Kaye & Merry, 1985; Moscow & Cowan, 1988). MDR cells have an enhanced amount of a 150- 170 kDa plasma membrane glycoprotein, P-glycoprotein (Pgp) (Kartner et al., 1983 and 1985; Cornwell et al., 1986; Bradley et al., 1988; Beck, 1991a; Roninson, 1991), that may function as a low-specificity transport protein to facilitate the outward transport of cytotoxic agents including the anthracyclines.” for “use.”

[9] = 10 µM drug (1000-fold molar excess), iodomycin 10 nM, 30 min 37°C
[10] = 40 µM drug (100-fold molar excess)
[11] = 5 µM modulator (500-fold molar excess)

Row | SMILES | Per cent inhibition of [125I]iodomycin photolabelling of Pgp [1, 9] | Per cent inhibition of [125I]iodomycin photolabelling of Pgp ([1]; 20 µM drug, iodomycin 10 nM) | Per cent inhibition of [125I]iodomycin photolabelling of Pgp ([1]; 40 µM drug, iodomycin 10 nM) | Lipid solubility (O/W), octanol/water partition coefficient [2] | Per cent inhibition of [3H]AZP photolabelling of Pgp ([3]; 10 µM drug) | Per cent inhibition of [3H]AZP photolabelling of Pgp ([3]; 20 µM drug) | Per cent inhibition of [3H]AZP photolabelling of Pgp [3, 10] | also measured
1 | CC(=O)[C@]1(O)Cc2c(O)c3c(c(O)c2[C@@H](O[C@H]2C[C@H](N)[C@H](O)[C@H](C)O2)C1)C(=O)c1ccccc1C3=O [4-demethoxy-daunorubicin] | 35.9% | 52.2% | 58.3% | 13.08 | 1.5% | 3.6% | 19.8% | 
2 | CCCCC(=O)OCC(=O)[C@]1(O)Cc2c(O)c3c(c(O)c2[C@@H](O[C@H]2C[C@H](NCc4ccccc4)[C@H](O)[C@H](C)O2)C1)C(=O)c1c(OC)cccc1C3=O [AD-198, N-benzyladriamycin-14-valerate] | 85% | 95.8% | > 99% | > 200 | 74.1% | 81.7% | 90.9% | Per cent inhibition of [3H]AZP photolabelling of Pgp ([3]; 40 µM drug (100-fold molar excess), listed as Ad-198): about 90%
3 | CC[C@@]1(O)C[C@H](O[C@H]2C[C@H](N(C)C)[C@H](O[C@H]3C[C@H](O)[C@H](O[C@H]4CCC(=O)[C@H](C)O4)[C@H](C)O3)[C@H](C)O2)c2c(cc3c(c2O)C(=O)c2c(O)cccc2C3=O)[C@H]1C(=O)OC [Aclacinomycin A] | 22.6% | 52.0% | 75.3% |  | 65.3% | 74.7% | 85.7% | Effect on accumulation of DNR [4]: did increase accumulation of DNR the most
4 | CCOC(=O)C1=C(C)NC(C)=C(C(=O)OCCNC(=O)c2ccc(N=[N+]=[N-])cc2)C1c1ccccc1C(F)(F)F (stereo not drawn) [Azidopine] | 67.9% |  |  |  |  |  |  | Per cent inhibition of [125I]iodomycin photolabelling of Pgp ([1]; 1 µM modulator): 6.7%; Per cent inhibition of [125I]iodomycin photolabelling of Pgp ([1]; 1 µM modulator, listed as AZP): hardly inhibited; Per cent inhibition of [125I]iodomycin photolabelling of Pgp [1, 11]: 50.0%; Per cent inhibition of [125I]iodomycin photolabelling of Pgp ([1]; 5 µM modulator (500-fold molar excess), listed as AZP): 50%; Kd ([5]; ref Safa et al., 1987): 1000 nM
5 | COc1cccc2c1C(=O)c1c(O)c3c(c(O)c1C2=O)C[C@@](O)(C(=O)CO)C[C@@H]3O[C@H]1C[C@H](N)[C@H](I)[C@H](C)O1 [DIDOX, 4'-deoxy-4'-iododoxorubicin] | 20.6% | 17.5% | 22.5% | 14.51 | 0% | 0% | 19.7% | Effect on accumulation of DNR ([6]; 1990b, Arcamone, 1985): did not increase DNR accumulation
6 | COc1cccc2c1C(=O)c1c(O)c3c(c(O)c1C2=O)C[C@@](O)(C(=O)CO)C[C@@H]3O[C@H]1C[C@H](N)[C@H](O)[C@H](C)O1 [Doxorubicin] | 0% | 0% | 16.8% | 1.22 | 0% | 10.5% | 11.0% | Inhibition of [3H]AZP labelling of Pgp [7]: 19%; Per cent inhibition of [125I]iodomycin photolabelling of Pgp ([1]; 10 µM drug (1000-fold molar excess), iodomycin 10 nM, 30 min 37°C, listed as DOX): did not cause significant inhibition; Per cent inhibition of [125I]iodomycin photolabelling of Pgp ([1]; 40 µM drug, iodomycin 10 nM, listed as DOX): 17% and 10-17%; Per cent inhibition of [3H]AZP photolabelling of Pgp ([3]; 40 µM drug (100-fold molar excess), listed as DOX): 10-17%; Effect on accumulation of DNR ([6]; 1990a): does not increase accumulation of DNR
7 | O=C1c2c(O)ccc(O)c2C(=O)c2c(NCCNCCO)ccc(NCCNCCO)c21 [Mitoxantrone] | 42.9% | 56.9% | 58.8% | 5.06 | 7.5% | 15.6% | 19.5% | 
8 | COc1cccc2c1C(=O)c1c(O)c3c(c(O)c1C2=O)C[C@@](O)(C(C)=O)C[C@@H]3OC1CC(N(Cc2ccccc2)Cc2ccccc2)C(O)C(C)O1.Cl (stereo partly drawn) [N,N,-dibenzyl-daunorubicin] | 52.4% | 97.3% | > 99% | > 200 | 75.2% | 87.1% | 90.5% | Per cent inhibition of [125I]iodomycin photolabelling of Pgp ([1]; 20 µM drug, iodomycin 10 nM, listed as N,N-dibenzyl-DNR): 97%; Effect on accumulation of DNR [4]: did increase accumulation of DNR the most; Per cent inhibition of [3H]AZP photolabelling of Pgp ([3]; 40 µM drug (100-fold molar excess), listed as N,N-dibenzyl-DNR): about 90%
9 | CC[C@]1(O)C[C@H]2CN(CCc3c([nH]c4ccccc34)[C@@](C(=O)OC)(c3cc4c(cc3OC)N(C=O)[C@H]3[C@@](O)(C(=O)OC)[C@H](OC(C)=O)[C@]5(CC)C=CCN6CC[C@]43[C@@H]65)C2)C1 [Vincristine] | 95% and 94.3% |  |  | 1.98 |  |  |  | Per cent inhibition of [125I]iodomycin photolabelling of Pgp ([1]; 1 µM modulator): 53.1%; Per cent inhibition of [125I]iodomycin photolabelling of Pgp ([1]; 1 µM modulator, listed as VCR): about 50%; Per cent inhibition of [125I]iodomycin photolabelling of Pgp [1, 11]: 78.6%; Per cent inhibition of [125I]iodomycin photolabelling of Pgp ([1]; 10 µM drug (1000-fold molar excess), iodomycin 10 nM, 30 min 37°C, listed as VCR): almost completely blocked
10 | COc1cccc2c1C(=O)c1c(O)c3c(c(O)c1C2=O)CC(O)(C(C)=O)CC3OC1CC(NC(=O)CCc2ccc(O)c(I)c2)C(O)C(C)O1 (stereo not drawn) [[125I]iodomycin] |  |  |  |  |  |  |  | Reduced steady-state accumulation in EHR2/DNR+ relative to EHR2 [8]: ~5 fold; Steady-state accumulation ([8]; EHR2/DNR+ cells): 42 fmol 10-6 cells; Steady-state accumulation ([8]; EHR2 cells (wild type)): 207 fmol 10-6 cells; Kd ([5]; ref Busche et al., 1989b): 25 nM
